Results taken from ChEMBL document CHEMBL5724914, “Linking interpersonal differences in gut microbiota composition and drug biotransformation activity” (2024).

conditions: human gut metagenome, 24 h, 2 µM
Also: call rule not given here.

Row | Bacterial Biotransformation | SMILES
1 | Compound NOT metabolized | CC(C)c1c(C(=O)Nc2ccccc2)c(-c2ccccc2)c(-c2ccc(F)cc2)n1CC[C@@H](O)C[C@@H](O)CC(=O)O [ATORVASTATIN]
2 | Compound metabolized | Cc1cn([C@H]2C[C@H](N=[N+]=[N-])[C@@H](CO)O2)c(=O)[nH]c1=O [ZIDOVUDINE]
3 | Compound NOT metabolized | COc1ccccc1OCC(O)CN1CCN(CC(=O)Nc2c(C)cccc2C)CC1 (stereo not given) [RANOLAZINE]

assay: (§1) The drug is tested on WLS-006 corresponding to human gut metagenome with ENA study accession number: PRJEB37062 and ENA sample accession number: ERS12561741 for biotransformation under anaerobic condition. The drug concentrations were measured over 9 timepoints collected between 0 and 24 hours of incubation by liquid-chromatography-coupled mass spectrometry (LC–MS); conditions: 2 µM

Row | Bacterial Biotransformation | SMILES
4 | Compound metabolized | CC(C)c1c(C(=O)Nc2ccccc2)c(-c2ccccc2)c(-c2ccc(F)cc2)n1CC[C@@H](O)C[C@@H](O)CC(=O)O [ATORVASTATIN]
5 | Compound metabolized | Cc1cn([C@H]2C[C@H](N=[N+]=[N-])[C@@H](CO)O2)c(=O)[nH]c1=O [ZIDOVUDINE]
6 | Compound NOT metabolized | COc1ccccc1OCC(O)CN1CCN(CC(=O)Nc2c(C)cccc2C)CC1 (stereo not given) [RANOLAZINE]

assay: as §1, with “Z-009” for “WLS-006”, “pig” for “human”, “ERS12561809” for “ERS12561741”; conditions: 2 µM

Row | Bacterial Biotransformation | SMILES
7 | Compound NOT metabolized | CC(C)c1c(C(=O)Nc2ccccc2)c(-c2ccccc2)c(-c2ccc(F)cc2)n1CC[C@@H](O)C[C@@H](O)CC(=O)O [ATORVASTATIN]
8 | Compound NOT metabolized | Cc1cn([C@H]2C[C@H](N=[N+]=[N-])[C@@H](CO)O2)c(=O)[nH]c1=O [ZIDOVUDINE]
9 | Compound NOT metabolized | COc1ccccc1OCC(O)CN1CCN(CC(=O)Nc2c(C)cccc2C)CC1 (stereo not given) [RANOLAZINE]

conditions: human gut metagenome, 24 h, 2 µM; remark: another data set of the same source

Row | Bacterial Biotransformation | SMILES
10 | Compound NOT metabolized | CC(C)c1c(C(=O)Nc2ccccc2)c(-c2ccccc2)c(-c2ccc(F)cc2)n1CC[C@@H](O)C[C@@H](O)CC(=O)O [ATORVASTATIN]
11 | Compound NOT metabolized | Cc1cn([C@H]2C[C@H](N=[N+]=[N-])[C@@H](CO)O2)c(=O)[nH]c1=O [ZIDOVUDINE]
12 | Compound NOT metabolized | COc1ccccc1OCC(O)CN1CCN(CC(=O)Nc2c(C)cccc2C)CC1 (stereo not given) [RANOLAZINE]

assay: as §1, with “Z-001” for “WLS-006”, “mouse” for “human”, “ERS12561801” for “ERS12561741”; conditions: 2 µM

Row | Bacterial Biotransformation | SMILES
13 | Compound NOT metabolized | CC(C)c1c(C(=O)Nc2ccccc2)c(-c2ccccc2)c(-c2ccc(F)cc2)n1CC[C@@H](O)C[C@@H](O)CC(=O)O [ATORVASTATIN]
14 | Compound metabolized | Cc1cn([C@H]2C[C@H](N=[N+]=[N-])[C@@H](CO)O2)c(=O)[nH]c1=O [ZIDOVUDINE]
15 | Compound NOT metabolized | COc1ccccc1OCC(O)CN1CCN(CC(=O)Nc2c(C)cccc2C)CC1 (stereo not given) [RANOLAZINE]

assay: as §1, with “WLS-082” for “WLS-006”, “ERS12561751” for “ERS12561741”; conditions: 2 µM

Row | Bacterial Biotransformation | SMILES
16 | Compound metabolized | CC(C)c1c(C(=O)Nc2ccccc2)c(-c2ccccc2)c(-c2ccc(F)cc2)n1CC[C@@H](O)C[C@@H](O)CC(=O)O [ATORVASTATIN]
17 | Compound NOT metabolized | Cc1cn([C@H]2C[C@H](N=[N+]=[N-])[C@@H](CO)O2)c(=O)[nH]c1=O [ZIDOVUDINE]
18 | Compound NOT metabolized | COc1ccccc1OCC(O)CN1CCN(CC(=O)Nc2c(C)cccc2C)CC1 (stereo not given) [RANOLAZINE]

conditions: human gut metagenome, 24 h, 2 µM; remark: another data set of the same source

Row | Bacterial Biotransformation | SMILES
19 | Compound metabolized | CC(C)c1c(C(=O)Nc2ccccc2)c(-c2ccccc2)c(-c2ccc(F)cc2)n1CC[C@@H](O)C[C@@H](O)CC(=O)O [ATORVASTATIN]
20 | Compound NOT metabolized | Cc1cn([C@H]2C[C@H](N=[N+]=[N-])[C@@H](CO)O2)c(=O)[nH]c1=O [ZIDOVUDINE]
21 | Compound NOT metabolized | COc1ccccc1OCC(O)CN1CCN(CC(=O)Nc2c(C)cccc2C)CC1 (stereo not given) [RANOLAZINE]

assay: as §1, with “Z-020” for “WLS-006”, “rabbit” for “human”, “ERS12561819” for “ERS12561741”; conditions: 2 µM

Row | Bacterial Biotransformation | SMILES
22 | Compound NOT metabolized | CC(C)c1c(C(=O)Nc2ccccc2)c(-c2ccccc2)c(-c2ccc(F)cc2)n1CC[C@@H](O)C[C@@H](O)CC(=O)O [ATORVASTATIN]
23 | Compound metabolized | Cc1cn([C@H]2C[C@H](N=[N+]=[N-])[C@@H](CO)O2)c(=O)[nH]c1=O [ZIDOVUDINE]
24 | Compound NOT metabolized | COc1ccccc1OCC(O)CN1CCN(CC(=O)Nc2c(C)cccc2C)CC1 (stereo not given) [RANOLAZINE]

conditions: human gut metagenome, 24 h, 2 µM; remark: another data set of the same source

Row | Bacterial Biotransformation | SMILES
25 | Compound metabolized | CC(C)c1c(C(=O)Nc2ccccc2)c(-c2ccccc2)c(-c2ccc(F)cc2)n1CC[C@@H](O)C[C@@H](O)CC(=O)O [ATORVASTATIN]
26 | Compound NOT metabolized | Cc1cn([C@H]2C[C@H](N=[N+]=[N-])[C@@H](CO)O2)c(=O)[nH]c1=O [ZIDOVUDINE]
27 | Compound NOT metabolized | COc1ccccc1OCC(O)CN1CCN(CC(=O)Nc2c(C)cccc2C)CC1 (stereo not given) [RANOLAZINE]

assay: as §1, with “Z-024” for “WLS-006”, “pig” for “human”, “ERS12561823” for “ERS12561741”; conditions: 2 µM

Row | Bacterial Biotransformation | SMILES
28 | Compound NOT metabolized | CC(C)c1c(C(=O)Nc2ccccc2)c(-c2ccccc2)c(-c2ccc(F)cc2)n1CC[C@@H](O)C[C@@H](O)CC(=O)O [ATORVASTATIN]
29 | Compound NOT metabolized | Cc1cn([C@H]2C[C@H](N=[N+]=[N-])[C@@H](CO)O2)c(=O)[nH]c1=O [ZIDOVUDINE]
30 | Compound NOT metabolized | COc1ccccc1OCC(O)CN1CCN(CC(=O)Nc2c(C)cccc2C)CC1 (stereo not given) [RANOLAZINE]

assay: as §1, with “Z-028” for “WLS-006”, “mouse” for “human”, “ERS12561827” for “ERS12561741”; conditions: 2 µM

Row | Bacterial Biotransformation | SMILES
31 | Compound NOT metabolized | CC(C)c1c(C(=O)Nc2ccccc2)c(-c2ccccc2)c(-c2ccc(F)cc2)n1CC[C@@H](O)C[C@@H](O)CC(=O)O [ATORVASTATIN]
32 | Compound metabolized | Cc1cn([C@H]2C[C@H](N=[N+]=[N-])[C@@H](CO)O2)c(=O)[nH]c1=O [ZIDOVUDINE]
33 | Compound NOT metabolized | COc1ccccc1OCC(O)CN1CCN(CC(=O)Nc2c(C)cccc2C)CC1 (stereo not given) [RANOLAZINE]

conditions: human gut metagenome, 24 h, 2 µM; remark: another data set of the same source

Row | Bacterial Biotransformation | SMILES
34 | Compound NOT metabolized | CC(C)c1c(C(=O)Nc2ccccc2)c(-c2ccccc2)c(-c2ccc(F)cc2)n1CC[C@@H](O)C[C@@H](O)CC(=O)O [ATORVASTATIN]
35 | Compound NOT metabolized | Cc1cn([C@H]2C[C@H](N=[N+]=[N-])[C@@H](CO)O2)c(=O)[nH]c1=O [ZIDOVUDINE]
36 | Compound NOT metabolized | COc1ccccc1OCC(O)CN1CCN(CC(=O)Nc2c(C)cccc2C)CC1 (stereo not given) [RANOLAZINE]

conditions: human gut metagenome, 24 h, 2 µM; remark: another data set of the same source

Row | Bacterial Biotransformation | SMILES
37 | Compound NOT metabolized | CC(C)c1c(C(=O)Nc2ccccc2)c(-c2ccccc2)c(-c2ccc(F)cc2)n1CC[C@@H](O)C[C@@H](O)CC(=O)O [ATORVASTATIN]
38 | Compound NOT metabolized | Cc1cn([C@H]2C[C@H](N=[N+]=[N-])[C@@H](CO)O2)c(=O)[nH]c1=O [ZIDOVUDINE]
39 | Compound NOT metabolized | COc1ccccc1OCC(O)CN1CCN(CC(=O)Nc2c(C)cccc2C)CC1 (stereo not given) [RANOLAZINE]

conditions: human gut metagenome, 24 h, 2 µM; remark: another data set of the same source

Row | Bacterial Biotransformation | SMILES
40 | Compound metabolized | CC(C)c1c(C(=O)Nc2ccccc2)c(-c2ccccc2)c(-c2ccc(F)cc2)n1CC[C@@H](O)C[C@@H](O)CC(=O)O [ATORVASTATIN]
41 | Compound NOT metabolized | Cc1cn([C@H]2C[C@H](N=[N+]=[N-])[C@@H](CO)O2)c(=O)[nH]c1=O [ZIDOVUDINE]
42 | Compound NOT metabolized | COc1ccccc1OCC(O)CN1CCN(CC(=O)Nc2c(C)cccc2C)CC1 (stereo not given) [RANOLAZINE]

assay: as §1, with “Z-027” for “WLS-006”, “to” for “to human gut”, “ERS12561826” for “ERS12561741”; conditions: 2 µM

Row | Bacterial Biotransformation | SMILES
43 | Compound NOT metabolized | CC(C)c1c(C(=O)Nc2ccccc2)c(-c2ccccc2)c(-c2ccc(F)cc2)n1CC[C@@H](O)C[C@@H](O)CC(=O)O [ATORVASTATIN]
44 | Compound metabolized | Cc1cn([C@H]2C[C@H](N=[N+]=[N-])[C@@H](CO)O2)c(=O)[nH]c1=O [ZIDOVUDINE]
45 | Compound NOT metabolized | COc1ccccc1OCC(O)CN1CCN(CC(=O)Nc2c(C)cccc2C)CC1 (stereo not given) [RANOLAZINE]

conditions: human gut metagenome, 24 h, 2 µM; remark: another data set of the same source

Row | Bacterial Biotransformation | SMILES
46 | Compound metabolized | CC(C)c1c(C(=O)Nc2ccccc2)c(-c2ccccc2)c(-c2ccc(F)cc2)n1CC[C@@H](O)C[C@@H](O)CC(=O)O [ATORVASTATIN]
47 | Compound NOT metabolized | Cc1cn([C@H]2C[C@H](N=[N+]=[N-])[C@@H](CO)O2)c(=O)[nH]c1=O [ZIDOVUDINE]
48 | Compound NOT metabolized | COc1ccccc1OCC(O)CN1CCN(CC(=O)Nc2c(C)cccc2C)CC1 (stereo not given) [RANOLAZINE]

conditions: human gut metagenome, 24 h, 2 µM; remark: another data set of the same source

Row | Bacterial Biotransformation | SMILES
49 | Compound metabolized | CC(C)c1c(C(=O)Nc2ccccc2)c(-c2ccccc2)c(-c2ccc(F)cc2)n1CC[C@@H](O)C[C@@H](O)CC(=O)O [ATORVASTATIN]
50 | Compound NOT metabolized | Cc1cn([C@H]2C[C@H](N=[N+]=[N-])[C@@H](CO)O2)c(=O)[nH]c1=O [ZIDOVUDINE]
51 | Compound NOT metabolized | COc1ccccc1OCC(O)CN1CCN(CC(=O)Nc2c(C)cccc2C)CC1 (stereo not given) [RANOLAZINE]

assay: as §1, with “Z-007” for “WLS-006”, “rat” for “human”, “ERS12561807” for “ERS12561741”; conditions: 2 µM

Row | Bacterial Biotransformation | SMILES
52 | Compound NOT metabolized | CC(C)c1c(C(=O)Nc2ccccc2)c(-c2ccccc2)c(-c2ccc(F)cc2)n1CC[C@@H](O)C[C@@H](O)CC(=O)O [ATORVASTATIN]
53 | Compound metabolized | Cc1cn([C@H]2C[C@H](N=[N+]=[N-])[C@@H](CO)O2)c(=O)[nH]c1=O [ZIDOVUDINE]
54 | Compound NOT metabolized | COc1ccccc1OCC(O)CN1CCN(CC(=O)Nc2c(C)cccc2C)CC1 (stereo not given) [RANOLAZINE]

conditions: human gut metagenome, 24 h, 2 µM; remark: another data set of the same source

Row | Bacterial Biotransformation | SMILES
55 | Compound metabolized | CC(C)c1c(C(=O)Nc2ccccc2)c(-c2ccccc2)c(-c2ccc(F)cc2)n1CC[C@@H](O)C[C@@H](O)CC(=O)O [ATORVASTATIN]
56 | Compound NOT metabolized | Cc1cn([C@H]2C[C@H](N=[N+]=[N-])[C@@H](CO)O2)c(=O)[nH]c1=O [ZIDOVUDINE]
57 | Compound NOT metabolized | COc1ccccc1OCC(O)CN1CCN(CC(=O)Nc2c(C)cccc2C)CC1 (stereo not given) [RANOLAZINE]

assay: as §1, with “Z-013” for “WLS-006”, “rabbit” for “human”, “ERS12561813” for “ERS12561741”; conditions: 2 µM

Row | Bacterial Biotransformation | SMILES
58 | Compound NOT metabolized | CC(C)c1c(C(=O)Nc2ccccc2)c(-c2ccccc2)c(-c2ccc(F)cc2)n1CC[C@@H](O)C[C@@H](O)CC(=O)O [ATORVASTATIN]
59 | Compound NOT metabolized | Cc1cn([C@H]2C[C@H](N=[N+]=[N-])[C@@H](CO)O2)c(=O)[nH]c1=O [ZIDOVUDINE]
60 | Compound NOT metabolized | COc1ccccc1OCC(O)CN1CCN(CC(=O)Nc2c(C)cccc2C)CC1 (stereo not given) [RANOLAZINE]
